The values below come from patent US20140249105A1, “NOVEL CERAMIDE ANALOGUES, PROCESSES FOR PREPARING SAME AND USES THEREOF” (Diverchim, priority 2011, published 2014).

The subject of data set [1] is Normal human epidermal keratinocytes (NHEK). As to the kind of experiment: Proliferation and/or migration of keratinocytes, artificial wound coverage. The format is cell-based. The note with it: percentage coverage at 48 h. On the procedure:
The phases of migration and proliferation of cells are major phases of healing that occur after the inflammation phase and are necessary for recolonization of the wound. An increase in the migration and proliferation of cells allows an improvement in healing. • Biological model: Normal human epidermal keratinocytes (NHEK) • Culture conditions: 37° C., 5% CO2 • Culture medium: Keratinocyte-SFM-PE-EGF (keratinocyte culture medium—serum free medium (SFM) without pituitary extract (PE) and without Epidermal Growth Factor (EGF) • Conditions: • Control (n=6) • Reference: EGF (Epidermal Growth Factor) at 10 ng/ml (n=2) • compounds tested (n=2) • Incubation: 72 hours • Assay: Normal human keratinocytes were seeded on 96-well plates suitable for the migration studies. In these plates, the substrates were pretreated with a solution of collagen and a mask was placed at the centre of each well, preventing adhesion of the cells in this zone and thus forming an artificial wound. After labelling the cells with calcein, the masks were removed and then the cells were treated with the compounds or the reference. The migration of the cells was monitored microscopically for 72 hours, taking photographs at 0 h, 24 h, 48 h and 72 h. The results are expressed in percentage coverage and compared with the untreated control.

The subject of data set [2] is Human dermal fibroblasts aged according to the Hayflick model (P17NHDF). As to the kind of experiment: Proliferation of aged human dermal fibroblasts, [3H]-thymidine incorporation. The format is cell-based. The following applies: 72 hours. On the procedure:
Thus, stimulation of the proliferation of the aged fibroblasts makes possible a partial reversal of the deleterious effects of ageing. • Biological model: Human dermal fibroblasts aged according to the Hayflick model (fibroblasts obtained by successive subculture) (P17NHDF) • Culture conditions: 37° C., 5% CO2 • Culture medium: DMEM/fetal calf serum (FCS) 10% • Conditions: • Control (n=6) • Control normal fibroblasts, not aged (P7 NHDF) (n=2) • Reference: EGF (Epidermal Growth Factor) at 10 ng/mL (n=2) • compounds tested (n=2) • Incubation: 72 hours • Assay: The effects on proliferation were evaluated by measuring the incorporation of [^3H]-thymidine in fibroblasts aged according to the Hayflick model. The Hayflick model consists of applying successive subcultures in order to induce an “aged” phenotype. The results are expressed in percentage stimulation of the incorporation of [^3H]-thymidine.
A general note: Uptake of a labelled nucleoside into DNA is a usual measure of proliferation.

The test system of data set [3] is B16 melanocytes. As to the kind of experiment: Screening of anti-melanogenesis activity: melanin assay in B16 melanocytes stimulated with NDP-MSH. The format is cell-based. The note with it: 72 h. On the procedure: This was carried out for compounds in solution in DMSO. The synthesis of melanin was measured in a model of B16 melanocytes stimulated with a stable derivative of α-MSH (natural hormone that stimulates melanogenesis: Melanocyte Stimulating Hormone): NDP-MSH ([Nle^4, DPhe7]-α-MSH).
(§1) Melanocytes were seeded on a 96-well plate and cultured for 24 h (37° C., 5% CO2, DMEM 1 g/L glucose without phenol red supplemented with glucose 3 g/L, L-glutamine 2 mM, penicillin 50 U/mL, streptomycin 50 μg/mL, fetal calf serum (FCS) 10%). […] Each experimental condition was carried out with n=3, apart from the controls carried out with n=6. The cells were then incubated for 72 h. Wells without cells received in parallel the same quantities of medium, supplemented or not with NDP-MSH and with or without the test compounds or the reference in order to quantify the background noise associated with the presence of the compounds.
At the end of 72 hours of incubation, the total melanin (intra- and extracellular) was quantified by measuring the absorbance of each sample at 405 nm (direct reading of the culture plates) against a standard range of melanin (melanin concentrations tested from 0.78 to 100 μg/mL). The background noise, measured in the wells without cells, was subtracted from the values measured so that only the effect connected with the production of melanin is taken into account, without including any interference connected with the presence of the compounds. The results were expressed in percentage of melanin relative to the control as well as in percentage inhibition.

Data set [4] addresses T1, human leukocyte elastase (Homo sapiens, UniProt P08246).
T1 sequence (P08246 30-267): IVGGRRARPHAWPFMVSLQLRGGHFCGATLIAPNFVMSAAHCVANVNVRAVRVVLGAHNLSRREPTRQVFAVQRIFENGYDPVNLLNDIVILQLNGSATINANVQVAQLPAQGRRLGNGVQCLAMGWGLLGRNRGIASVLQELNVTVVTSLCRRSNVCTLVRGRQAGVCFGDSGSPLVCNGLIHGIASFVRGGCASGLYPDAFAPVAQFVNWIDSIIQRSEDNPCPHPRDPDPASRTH
The data set can be described thus: Inhibition of leukocyte elastase (EnzChek Elastase assay kit). The following applies: incubation 1 hour. The format is biochemical. The source says:
The elastases are a sub-family of serine proteases responsible for the degradation of elastin. The numerous natural substrates of this enzyme include, in addition to elastin, the proteoglycans of cartilage, fibronectin and the type I, II, III and IV collagens. At the cutaneous level, inhibition of elastase can combat the effects of ageing, whether or not photo-induced, and limit the appearance of wrinkles and stretch marks. • Biological model: human leukocyte elastase • Conditions: • Control (n=6) • Reference: AAPV (N-methoxysuccinyl-Ala-Ala-Pro-Val-chloromethyl ketone) 100 μM (n=6) • compounds tested (n=2) • Incubation: 1 hour • Assay: The activity of human leukocyte elastase was evaluated using the EnzChek® Elastase assay kit. The measurement of activity is based on the use of a fluorescent substrate (DQTM Elastin) whose fluorescence is “quenched” through the presence of “quencher” groups at the level of the lytic sites. After action of the enzyme, the “quencher” groups are released and the fluorescence emitted is proportional to the activity of the enzyme. The results are expressed in percentage inhibition of the enzyme activity.

Data set [5] relates to Normal human dermal fibroblasts (NHDF). As to the kind of experiment: Proliferation and/or migration of fibroblasts, artificial wound coverage. The format is cell-based. The note with it: percentage coverage at 24 h. The protocol:
An increase in migration and proliferation of the cells allows an improvement in healing. • Biological model: Normal human dermal fibroblasts (NHDF) • Culture conditions: 37° C., 5% CO2 • Culture medium: DMEM • Conditions: • Control (NHDF in DMEM test medium 0% FCS) (n=6) • Reference: FCS (Fetal Calf Serum) at 10% (n=2) • compounds tested (n=2) • Incubation: 72 hours • Assay: Normal human fibroblasts were seeded on 96-well plates suitable for the migration studies. In these plates, the substrates were pretreated with a solution of collagen and a mask was placed at the centre of each well, preventing adhesion of the cells in this zone and thus forming an artificial wound. After labelling the cells with calcein, the masks were removed and then the cells were treated with the compounds or the reference. The migration of the cells was monitored microscopically for 72 hours, taking photographs at 0 h, 24 h, 48 h and 72 h. The results are expressed in percentage coverage and compared with the untreated control.

In data set [6] the test system is B16 melanocytes. The data set can be described thus: Viability of the cells, test of reduction of MTT. The following applies: 72 h. The format is cell-based. On the procedure: as §1
At the end of the treatment, the cells were incubated in the presence of MTT (3-(4,5-dimethylthiazol-2-yl)-2,5-diphenyl tetrazolium bromide), the conversion of which to blue crystals of formazan is proportional to the activity of succinate dehydrogenase (mitochondrial enzyme). After disruption of the cells, the formazan was dissolved in DMSO medium and the optical density (OD), representative of the number of live cells and of their metabolic reactivity, was measured with a microplate reader at 540 nm (VERSAmax, Molecular Devices).

Data set [7] concerns the target T2, tyrosinase (DOPA oxidase) (Homo sapiens, UniProt P14679).
T2 construct: from tissue; host or cells: separated human epidermis from a frozen abdominoplasty (melanocytes in situ)
T2 sequence (P14679 19-529): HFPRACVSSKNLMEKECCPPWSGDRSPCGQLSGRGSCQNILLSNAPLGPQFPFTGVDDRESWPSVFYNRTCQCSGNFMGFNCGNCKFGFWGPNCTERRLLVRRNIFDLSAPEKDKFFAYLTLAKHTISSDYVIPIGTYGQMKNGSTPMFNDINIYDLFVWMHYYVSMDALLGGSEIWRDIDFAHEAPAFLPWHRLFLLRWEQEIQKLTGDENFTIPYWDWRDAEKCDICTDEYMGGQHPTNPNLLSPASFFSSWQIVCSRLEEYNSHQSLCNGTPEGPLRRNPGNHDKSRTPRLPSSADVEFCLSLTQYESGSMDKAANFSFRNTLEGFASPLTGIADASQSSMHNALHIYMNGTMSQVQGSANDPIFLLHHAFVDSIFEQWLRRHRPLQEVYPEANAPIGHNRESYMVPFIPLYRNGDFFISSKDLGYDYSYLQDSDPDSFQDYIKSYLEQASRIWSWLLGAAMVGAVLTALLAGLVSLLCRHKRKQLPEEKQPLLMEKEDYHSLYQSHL
As to the kind of experiment: Screening of anti-tyrosinase activity: DOPA oxidase reaction on separated epidermis, count of DOPA positive melanocytes per mm2. The format is cell-based. The note with it: for Variation/control: DOPA positive melanocyte count per mm2 vs DOPA control, product at 30 μg/mL in DMSO; for effectiveness for limiting tyrosinase activity compared with reference compounds: vs ref 1. On the procedure: The products are tested in solution at 30 μg/mL in DMSO. Epidermis samples originating from a frozen abdominoplasty (person) were separated by incubation in 2N NaBr for 1.0 h at 37° C. They were then fixed in a buffered formolized fixing agent, rinsed and put in contact with the volume/volume mixture: solutions of L-DOPA/test formulation. After incubation, they were rinsed and mounted between slide and cover slip with mounting liquid of the Aquatex type. Observation was by optical microscopy with ×10 objective. Images were obtained with a tri CCD Sony DXC […] camera and stored using the Leica IM1000 data archiving software. For each batch, several microscope fields were analysed using the LEICA QWin image analysis software. For each field, the DOPA positive melanocytes were counted and the area of the zone was measured to determine the melanocyte count per mm^2.

Where “and” joins values, the source holds several entries; their conditions need not be identical. Equal values may be shown once. * marks the point of attachment. MeOSuc = COC(=O)CCC(=O)*; CH2Cl = ClC*

Turning to EGF: Epidermal Growth Factor, reference, the “% control 48 h” value in data set [1] (10 ng/mL) came to 161 % control. For the same compound, the “Stimulation (%)” value in data set [2] (10 ng/ml) turned out to be 89%.

Regarding `O=C(/C=C/CCCCCCCCCCCO)N[C@H]1C[C@H]1NC(=O)/C=C/CCCCCCCCCCCO` [c7], the “Stimulation (%)” value in data set [2] (10 μM) stood at 63%.

`CCCCCC=CCC=CCCCCCCCC(=O)NC1CCCC1NC(=O)CCCCCCCC=CCC=CCCCCC` (stereo not shown) [c128]: the figures for the “Normalized data inhibition (%)” value in data set [3] (30 μM) and in data set [3] (100 μM) were 9% and 93%, respectively. Besides, in data set [4] (30 μM), the “Inhibition (%)” value amounted to 75%.

Regarding `CCCCCCCCCCCCCC(=O)NC1CCC(NC(=O)CCCCCCCCCCCCC)C1` (stereo not shown) [c132], the “% control 48 h” value in data set [1] (10 μM) worked out at 138 % control. Also, in data set [5] (10 μM), the “% control 24 h” value amounted to 131 % control.

As to `CCCCCCCCCCC/C=C(/F)C(=O)N[C@@H]1CC[C@H](NC(=O)/C(F)=C\CCCCCCCCCCC)C1` [c85], in data set [1] (10 μM), the “% control 48 h” value turned out to be 176 % control. For the same compound, in data set [2] (10 μM), the “Stimulation (%)” value is 22%.

As usually defined, the inhibition is the change of the read-out against control, counted positive when it falls. Regarding `O=C(/C=C/CCCCCOC1CCCCO1)N[C@H]1CCC[C@H]1NC(=O)/C=C/CCCCCOC1CCCCO1` (stereo partly shown) [c27], the “Viability (MTT) % stimulated control” value in data set [6] (30 μM) is given as 89 % stimulated control; in data set [6] (100 μM) it was 71 % stimulated control. Further, the inhibition at 30 µM in data set [3] (Melanocyte, 30 μM, read-out: Normalized data inhibition (%)) came to 12%. The inhibition at 100 µM in data set [3] (Melanocyte, 100 μM, read-out: Normalized data inhibition (%)) turned out to be 110%. In data set [5] (10 μM), the “% control 24 h” value amounted to 131 % control.

For the compound “N-methoxysuccinyl-Ala-Ala-Pro-Val-chloromethyl ketone (MeOSuc-AAPV-CH2Cl) [reference compound]”, the “Inhibition (%)” value in data set [4] (100 μM) is given as 95%.

For the compound `O=C(NC1CC1NC(=O)C(F)=CCCCCCCCCCCCCCCO)C(F)=CCCCCCCCCCCCCCCO` (stereo not shown) [c42], the “% control 48 h” value in data set [1] (3 μM) is recorded as 141 % control. Moreover, in data set [5] (3 μM), the “% control 24 h” value turned out to be 130 % control. Besides, in data set [2] (3 μM), the “Stimulation (%)” value is given as 48%. In addition, in data set [7], the Variation/control is −55 and the “effectiveness for limiting tyrosinase activity compared with reference compounds” value is “more effective than the reference compounds”.

`O=C(N[C@H]1C[C@H]1NC(=O)/C(F)=C/CCCCCCCCCCCO)/C(F)=C/CCCCCCCCCCCO` [c40]: in data set [1] (30 μM), the “% control 48 h” value was 144 % control. For the same compound, the “Viability (MTT) % stimulated control” value in data set [6] (10 μM) is 89 % stimulated control; in data set [6] (30 μM), 85 % stimulated control and 94 % stimulated control; in data set [6] (100 μM), 86 % stimulated control and 94 % stimulated control. Besides, in data set [3] (10 μM), the “Normalized data inhibition (%)” value was −1%. Besides, in data set [7], the Variation/control is listed as −61. In addition, the “effectiveness for limiting tyrosinase activity compared with reference compounds” value in data set [7] was “more effective than the reference compounds”.
